# In US5312817A, “Treatment of fatigue syndrome” (priority 1991, dated 1994):
# Where a name gives a salt, the structure may show the parent alone. Read-outs that look alike come from different tables or passages of the source.
# Columns and labels:
# [1] = cited from earlier work
# [2] = test system: cholinesterase in hemolyzed whole blood (hemolysate); assay: Sigma Diagnostics Cholinesterase (PTC) kit, hemolysate of patient blood samples; format: biochemical, human; conditions: for Hemolysate ChE activity: no addition = 1.00, blood samples from 3 patients
# Excerpt: (§1) HChE=(EChE×Hct*)+(PChE×(1--Hct*))
# By doing this, the values are obtained directly.
# The results are shown below in table 1.1.
# [3] = test system: acetylcholinesterase as opposed to butyrylcholinesterase; conditions: cited from earlier work; for selectivity for acetylcholinesterase as opposed to butyrylcholinesterase: in vitro method by Thomsen et al.
# [4] = biological target: butyrylcholinesterase (pseudocholinesterase) in serum (Homo sapiens, UniProt P06276); conditions: for Serum ChE activity: no addition = 1.00, blood samples from 3 patients
# Excerpt: SIGMA DIAGNOSTICS® CHOLINESTERASE (PTC) kit, available from Sigma Diagnostics, can be used for determining the activity and selectivity of cholinesterase inhibitors. In the following, it is illustrated how the kit is used for the determination of the activity and selectivity of Nivalin (Galanthamine hydrobromide).
# Reactions involved in the cholinesterase assay are as follows: [drawing 3]
# Thiocholine+5,5'-Dithiobis-2-Nitrobenzoic Acid→5-Thio-2-NitrobenzoicAcid
# 5-Thio-2-Nitrobenzoic Acid is assessed by measuring the absorbance at 405 nm. The rate of change in absorbance at 405 nm is directly proportional to cholinesterase activity.
# The activity of erythrocyte cholinesterase may be calculated on the basis of the measurement of butyrylcholinesterase (pseudocholinesterase) in serum and cholinesterase in hemolyzed whole blood (hemolysate), both measured simultaneously by the method described above, and evaluated according to the hematocrit value according to the formula
# as §1
# In the above formulae, EChE is erythrocyte cholinesterase activity, PChE is plasma cholinesterase activity, HChE is hemolysate cholinesterase activity, and Hct is hematocrit value of the sample.
# Another way of assessing the cholinesterase activity is to measure the plasma cholinesterase and the cholinesterase in purified hemolyzed erythrocytes. By doing this, the values are obtained directly.
# Blood samples from 3 patients were tested with the Sigma test. The tests were carried out with samples where no Nivalin was added and with samples where 1.25 μg/ml Nivalin and 2.5 μg/ml were added in vitro.
# [5] = format: physicochemical; conditions: room temperature
# Protocol: Galanthamine and its acid addition salts form crystals. […] If necessary, pharmaceutically-acceptable suspension aids may be employed. Typically, such a suspension will be employed at a concentration of 0.1-50 mg/ml, such as 1-50 mg/ml, more commonly 5-40 mg/ml, for example, 5-30 mg/ml or 10-40 mg/ml, such as 10-30 mg/ml, especially 20-30 mg/ml of galanthamine. As mentioned above, typical dosage rates when administering galanthamine by injection are the range 0.01-20 mg per day depending upon the patient. […] In other cases, dosages as low as 5 mg and as high as 200 mg per day may be appropriate for persons in this body weight range.
# [6] = test system: acetylcholinesterase in the erythrocytes; conditions: within 2 minutes after 10 mg i.v., healthy volunteer; cited from earlier work
# [7] = test system: butyrylcholinesterase in plasma; conditions: after 10 mg i.v., healthy volunteer; cited from earlier work
# [8] = test system: auditory evoked potentials in the brain stem; assay: Auditory brain stem response; format: in vivo, human
# Protocol: The auditory brain stem response test is based on the observation that manio-depressive patients are hypersensitive to cholinergic influences, one manifestation hereof being hypersensitivity to auditory signals as assessed by the increase of amplitude of auditory evoked potentials in the nuclei of the auditory system in the brain stem, i.e. on the "brain side" of the blood brain barrier. […] See also example 3.
# Electrical potentials caused by click-stimulation in the ears are measured with electrodes positioned outside on the head of the examined parson. In the configuration of the potentials are components from the brain stem and the brain.
# A patient suffering from bipolar manio-depression in the depressive stats and a healthy person, respectively.
# Tablet containing 10 mg galanthamine
# [9] = test system: persons suffering from Chronic Fatigue Syndrome; assay: Double-blind cross-over trial in Chronic Fatigue Syndrome: Cognitive Failures Questionnaire; format: in vivo, human
# Excerpt: (§2) 20 persons suffering from Chronic Fatigue Syndrome fulfilling the criteria described in example 4 or 5.
# (§3) Each patient received treatment for a minimum of 8 weeks. The first 2 weeks incorporated an escalating schedule to stabilise the patient on an appropriate dose. The trial was running for eight weeks.
# 11 of the persons were randomly allocated to galanthamine treatment, and the remaining 9 to placebo treatment. The protocol for the trial made provisions for the clinician to opt after two weeks of treatment for transfer to the alternative treatment. […]
# [10] = use as anticurare agent in anesthesiology in Eastern Block countries since around 1958; cited from earlier work
# [11] = Side effects in treated patients; format: in vivo, human
# Protocol: A complete elimination of metabolites and galanthamine takes place in 72 hours. […] The common side effects, other than the ones related to cholinergic crisis, are either nausea or vomiting, and a slight headache. However, these side effects are rare, especially when care is taken to start medication in low doses such as mentioned above.
# Although galanthamine must be considered as having a high degree of safety, there have been certain side effects in a few of the patients treated. These have been slight nausea in about 30% of the cases (the nausea, however, disappearing after about one week of treatment), vomiting and dizziness in 5-10% of the patients (also disappearing after about one week of treatment in most cases), and more severe side effects in 4-6% of the patients. These more severe side effects must be considered acceptable in view of the effect of the drug; however, in patients who are suspected of developing arrhythmia, it should be considered to administer, e.g., atropine in combination with the treatment according to the invention.
# [12] = test system: persons suffering from Chronic Fatigue Syndrome; assay: Double-blind cross-over trial in Chronic Fatigue Syndrome: visual search task; format: in vivo, human
# Excerpt: as §2, §3
# (§4) 11 of the persons were randomly allocated to galanthamine treatment, and the remaining 9 to placebo treatment. The protocol for the trial made provisions for the clinician to opt after two weeks of treatment for transfer to the alternative treatment.
# (§5) The data available for the evaluation covered groups of patient-completed visual analogue scales to assess sleep disturbance, fatigue, myalgia, work capacity/satisfaction, and dizziness, together with time per response on a visual search task.
# [13] = test system: persons suffering from Chronic Fatigue Syndrome; assay: Double-blind cross-over trial in Chronic Fatigue Syndrome: clinician's transfer to alternative treatment; format: in vivo, human; conditions: after two weeks of treatment; 9/9 on placebo; exact p=0.00006
# Excerpt: as §2, §3, §4
# [14] = test system: persons suffering from Chronic Fatigue Syndrome; assay: Double-blind cross-over trial in Chronic Fatigue Syndrome: patient-completed visual analogue scales; format: in vivo, human; parameters: Sleep Disturbance visual analogue scale, mean / Fatigue visual analogue scale, mean / Myalgia visual analogue scale, mean / Work Capacity/Satisfaction visual analogue scale, mean / Memory visual analogue scale, mean / Dizziness visual analogue scale, mean / Sleep visual analogue scale, mean / Work visual analogue scale, mean: scale not given here
# Excerpt: as §2, §3, §4, §5
# In order to assess any underlying, overall performance difference between the galanthamine and placebo treated patients, the median (the statistic which differentiates the upper and lower 50% of scores) of the changes across all scales, was computed for the placebo treated patients.
# [15] = 2 hours after 10 mg tablet, treated compared to untreated
# [16] = all galanthamine treated patients, 8 Weeks, N = 17
# [17] = all galanthamine treated patients, Baseline, N = 19
# [18] = all galanthamine treated patients, 1 Week, N = 19
# [19] = all galanthamine treated patients, 4 Weeks, N = 18
# [20] = all galanthamine treated patients, 2 Weeks, N = 19
# [21] = randomly allocated to galanthamine (N=11), After 1 Week
# [22] = randomly allocated to galanthamine (N=11), After 2 Weeks
# [23] = randomly allocated to galanthamine (N=11), Baseline
# butyrylcholinesterase (pseudocholinesterase) in serum, sequence (P06276 29-602): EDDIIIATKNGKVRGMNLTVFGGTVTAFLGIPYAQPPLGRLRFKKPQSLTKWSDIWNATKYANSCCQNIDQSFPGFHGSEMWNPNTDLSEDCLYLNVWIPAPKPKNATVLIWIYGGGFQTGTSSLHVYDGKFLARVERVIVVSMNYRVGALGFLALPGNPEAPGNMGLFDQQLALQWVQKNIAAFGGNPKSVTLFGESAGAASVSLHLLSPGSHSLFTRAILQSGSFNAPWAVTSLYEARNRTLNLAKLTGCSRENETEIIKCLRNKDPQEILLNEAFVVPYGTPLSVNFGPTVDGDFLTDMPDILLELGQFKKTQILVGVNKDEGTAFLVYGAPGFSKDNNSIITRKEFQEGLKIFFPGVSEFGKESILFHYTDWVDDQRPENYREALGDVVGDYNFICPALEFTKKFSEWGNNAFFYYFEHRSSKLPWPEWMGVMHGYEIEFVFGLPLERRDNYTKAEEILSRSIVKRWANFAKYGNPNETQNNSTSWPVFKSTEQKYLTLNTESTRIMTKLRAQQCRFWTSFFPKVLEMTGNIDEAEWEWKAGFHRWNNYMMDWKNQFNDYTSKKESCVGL
smiles,measurement,setting,value
"COc1ccc2c3c1O[C@H]1C[C@@H](O)C=C[C@@]31CCN(C)C2 [galanthamine hydrobromide, Galanthamine hydrobromide]",elimination half life,[1]; in vivo,over four
same,absorption from the gut,[1]; in words,absorbed rapidly from the gut
same,passage of the blood brain barrier,[1]; in words,transverses the blood brain barrier easily
same,renal elimination,[1]; in words,practically complete renal elimination
same,Hemolysate ChE activity,[2]; 1.25 μg/ml added in vitro,0.96
same,Hemolysate ChE activity,[2]; 2.50 μg/ml added in vitro,0.86
same,change of hemolysate cholinesterase activity with increased concentration,[2]; in words,significant reduction
same,selectivity for acetylcholinesterase as opposed to butyrylcholinesterase,[3]; hydrobromide,50 fold
same,Serum ChE activity,[4]; 1.25 μg/ml added in vitro,0.98
same,Serum ChE activity,[4]; 2.50 μg/ml added in vitro,0.97
same,change of serum cholinesterase activity on addition,[4]; in words,do not show any statistically significant change
COc1ccc2c3c1O[C@H]1C[C@@H](O)C=C[C@@]31CCN(C)C2 [galanthamine],solubility in water,[5],only sparingly soluble
same,inhibition of acetylcholinesterase in the erythrocytes,[6],65%
same,time to complete elimination of metabolites and galanthamine,[1]; in vivo,72 h
same,duration of an effective concentration,"[1]; warranted by elimination half life, probably at least 6 hours",at least 4 hours
same,inhibition of butyrylcholinesterase in plasma,[7],no inhibition
same,"amplitude of auditory brain stem response, depressive patient",[8]; [15],dramatically increase of the amplitude
same,"auditory brain stem response potentials, healthy person",[8]; [15],potentials do not change
same,ability to cross the blood-brain barrier,[8]; concluded from change of potentials in the depressed person,must be able to cross the blood-brain barrier
same,"Cognitive Failures Questionnaire, mean (standard error)",[9]; 672 h,40.94 (3.87)
same,"Cognitive Failures Questionnaire, mean (standard error)",[9]; [16],38.47 (3.71)
same,"Cognitive Failures Questionnaire, mean (standard error)",[9]; [17],47.74 (3.56)
same,liver toxicity or serious side effects,[10],without any reported case of liver toxicity or serious side effects
same,"slight nausea, share of cases",[11]; disappearing after about one week of treatment,about 30%
same,"vomiting and dizziness, share of patients",[11]; disappearing after about one week of treatment in most cases,5-10%
same,"more severe side effects, share of patients","[11]; human, in vivo",4-6%
same,selectivity for acetylcholinesterase as opposed to butyrylcholinesterase,[3],about 50 fold
same,in vitro selectivity for acetylcholinesterase opposed the effect on butyrylcholinesterase,"[3]; ratio, as reported by Thomsen, Life Sciences 46",50 to 1
same,"average time per response on a visual search task, mean (standard error)",[12]; 336 h,5.51 (0.43)
same,"average time per response on a visual search task, mean (standard error)",[12]; [18],6.24 (0.40)
same,"average time per response on a visual search task, mean (standard error)",[12]; [19],5.83 (0.40)
same,"average time per response on a visual search task, mean (standard error)",[12]; [16],5.25 (0.31)
same,"average time per response on a visual search task, mean (standard error)",[12]; [17],6.79 (0.36)
same,patients transferred by the clinician to the alternative treatment (failed to benefit),[13],1/11
same,"Dizziness visual analogue scale, mean",[14]; [18],8.96
same,"Fatigue visual analogue scale, mean",[14]; [18],26.63
same,"Memory visual analogue scale, mean",[14]; [18],5.41
same,"Myalgia visual analogue scale, mean",[14]; [18],14.25
same,"Sleep visual analogue scale, mean",[14]; [18],17.26
same,"Work visual analogue scale, mean",[14]; [18],10.22
same,"Dizziness visual analogue scale, mean",[14]; [20],6.94
same,"Fatigue visual analogue scale, mean",[14]; [20],20.64
same,"Memory visual analogue scale, mean",[14]; [20],4.79
same,"Myalgia visual analogue scale, mean",[14]; [20],11.24
same,"Sleep visual analogue scale, mean",[14]; [20],15.51
same,"Work visual analogue scale, mean",[14]; [20],8.21
same,"Dizziness visual analogue scale, mean",[14]; [19],6.30
same,"Fatigue visual analogue scale, mean",[14]; [19],17.42
same,"Memory visual analogue scale, mean",[14]; [19],4.33
same,"Myalgia visual analogue scale, mean",[14]; [19],12.01
same,"Sleep visual analogue scale, mean",[14]; [19],11.89
same,"Work visual analogue scale, mean",[14]; [19],7.40
same,"Dizziness visual analogue scale, mean",[14]; [16],4.77
same,"Fatigue visual analogue scale, mean",[14]; [16],17.81
same,"Memory visual analogue scale, mean",[14]; [16],4.50
same,"Myalgia visual analogue scale, mean",[14]; [16],10.51
same,"Sleep visual analogue scale, mean",[14]; [16],10.88
same,"Work visual analogue scale, mean",[14]; [16],7.34
same,"Dizziness visual analogue scale, mean",[14]; [17],8.39
same,"Fatigue visual analogue scale, mean",[14]; [17],28.00
same,"Memory visual analogue scale, mean",[14]; [17],5.10
same,"Myalgia visual analogue scale, mean",[14]; [17],16.32
same,"Sleep visual analogue scale, mean",[14]; [17],19.45
same,"Work visual analogue scale, mean",[14]; [17],9.21
same,galanthamine treated patients changes on the analogue scales that fall above the placebo median,"[14]; first two weeks of treatment, across all scales, exact p=0.033",68.18%
same,"Dizziness visual analogue scale, mean",[14]; [21],9.00
same,"Fatigue visual analogue scale, mean",[14]; [21],29.76
same,"Memory visual analogue scale, mean",[14]; [21],5.89
same,"Myalgia visual analogue scale, mean",[14]; [21],15.95
same,"Sleep Disturbance visual analogue scale, mean",[14]; [21],17.90
same,"Work Capacity/Satisfaction visual analogue scale, mean",[14]; [21],11.61
same,"Dizziness visual analogue scale, mean",[14]; [22],8.79
same,"Fatigue visual analogue scale, mean",[14]; [22],25.21
same,"Memory visual analogue scale, mean",[14]; [22],5.62
same,"Myalgia visual analogue scale, mean",[14]; [22],13.58
same,"Sleep Disturbance visual analogue scale, mean",[14]; [22],18.42
same,"Work Capacity/Satisfaction visual analogue scale, mean",[14]; [22],9.64
same,"Dizziness visual analogue scale, mean",[14]; [23],9.05
same,"Fatigue visual analogue scale, mean",[14]; [23],29.41
same,"Memory visual analogue scale, mean",[14]; [23],5.31
same,"Myalgia visual analogue scale, mean",[14]; [23],17.58
same,"Sleep Disturbance visual analogue scale, mean",[14]; [23],20.78
same,"Work Capacity/Satisfaction visual analogue scale, mean",[14]; [23],9.43
